Experimental findings from US9927437B2, “Treating neurodegenerative disease” (THE BRIGHAM AND WOMEN'S HOSPITAL, INC., priority 2013, dated 2018) are described below.

For the data set, the system named is astrocytes. Description: mRNA expression in astrocytes isolated from EAE NOD mice (nCounter, qPCR). Format: in vivo, mouse. As to the method: Mononuclear cells were isolated from the CNS as previously described^50 with minor modifications. Naïve and EAE mice were euthanatized, and then subjected to perfusion through the left ventricle with ice-cold sterile PBS. Brains and spinal cord were then removed, minced and enzymatically dissociated with 0.05% (w/v) collagenase type III (Worthington Biochemical), 0.5% Dispase II (Roche Applied Science), 40 μg/ml DNAse I, 20 mM HEPES in HBSS) for 30 min at 37 C to make a suspension of single cells. Enzymes were inactivated with 20 ml of Ca^2+/Mg^2+-free HBSS containing 2 mM EDTA and 20 mM HEPES. The digested tissue was triturated and passed through a […] cell strainer. Cells were centrifuged and resuspended in 30% isotonic Percoll (GE Healthcare) and 40 μg/ml DNAse I, underlined by 70% isotonic Percoll, and centrifuged at 1000×g at 4° C. for 25 min. Cells were collected from the 70%-30% interphase, and sorted by FACS Aria.
These purification procedures are based on previously described dissociation and purification protocols^50,51. Isolated CNS cells, were incubated with anti-Mouse CD16/CD32 for 15 min on ice to block the Fc receptors, and stained with fluorochrome-conjugated antibody for CD11b (M1/70), CD45(90), CD3 (145-2C11), CD4 (GK1.5), and Ly6C (HK1.4), and Biotion-conjugated GSL I—isolectin B4 (Vector labs), CD105 (N418), CD140a (APA5), CD11c (N418), F4/80 (BM8), O4 (O4, Miltenyi Biotec), and CD19 (eBio1D3), and un-conjugated antibodies recognizing mouse MOG (8-18C5, Millipore), O1 (O1), and Galactocerebroside (mGlaC, Millipore). All antibodies were from Ebioscience, unless otherwise mentioned (clone number, when relevant, in parentheses). Cells were washed and incubated PE-conjugated Streptavidin and R-Phycoerythrin AffiniPure F(ab′)2 fragment of Goat Anti-Mouse IgG+IgM (H+L) (Jackson ImmunoResearch laboratories) for 20 min at 4 C in the dark. Cells were washed, incubated with 7-AAD or Fixable Viability Dye eFluor® 450 (if cells were to be used for intracellular staining), for exclusion of dead cells (FIG. S3A), and sorted as following. Microglia were sorted as CD11b^+ cells with low CD45 expression and low Ly6C (CD11b+/CD45^low/Ly6C^low), while the inflammatory monocytes were considered as CD11b^+/Ly6C^high 52. T-cells were sorted as CD3^+CD4^+ cells. Astrocytes were isolated following the depletion of lymphocytes, microglia, monocytes (FIG. S3B), and oligodendrocytes, and lymphocytes (T-cells, B-cells, and NK cells) (FIG. S3C). […] We confirmed that we had isolated a relatively pure populations of astrocytes by qPCR for the astrocyte markers^44,51 gfap, aldh1l1 and aqp4, and found them to be exclusively expressed in the astrocyte fraction (in a similar expression pattern to that of GFP^+ astrocytes sorted from Tg(GFP-hGFAP) FVB transgenic mice^49) (FIG. S3E). We used an additional cohort of markers to explore for presence of immune cells [microglia/monocytes cells—itgam (CD11b), and emr1 (F4/80), dendritic cells—itgax (CD11c), NK cells—Klrb1c (Nk1.1), T-cells—cd3, and B-cells—cd19], oligodendrocytes (mog, mbp), and neurons (syt1, snap25) (FIG. S3F, G).
100-200 ng of total RNA was hybridized with reporter and capture probes for nCounter Gene Expression code sets (Mouse Inflammation Kit, or a custom made astrocyte-oriented probe set (Table S1)), according to manufacturer's instructions (NanoString Technologies). Data were normalized to spiked positive controls and housekeeping genes (nSolver Analysis system). Transcript counts less than the mean of the negative control transcripts plus 2 standard deviations for each sample were considered background.
Nanostring generated gene expression data were analyzed by use of the Expander 6.06 platform^53. Genes were clustered using the unbiased CLICK algorithm, and each cluster was further analyzed for enrichments in transcription factors binding sites (promoter analysis).

As for `CCCCCCCCCC(=O)N[C@H](CN1CCOCC1)[C@H](O)c1ccccc1` [PDMP, D-threo-1-phenyl-2-decanoylamino-3-morpholino-1-propanol], under “NOD EAE progressive phase”, the “expression of demyelination-associated genes in astrocytes” value is “significant reduction” and the “expression of remyelination-associated genes in astrocytes” value is “increased expression”. The “expression of representative cluster 2 genes (ccl2, ccl5, cxcl10, il1b, nos2, opn, H2-Aa, vim) in astrocytes” value (NOD EAE progressive phase (day 100), qPCR) is given as “suppressive effects”. Moreover, the “irf1 and relB expression in astrocytes” value (NOD EAE, qPCR) was “subsequent suppression”.
As for “shB4galt6: lentivirus-delivered shRNA against b4galt6 (TRCN0000334278; SEQ ID NO:3) (guide CGATGGACTGAACAATTTATTCTCGAGAATAAATTGTTCAGTCCACG)”, the “b4galt6 and b4galt5 expression in astrocytes” value (NOD EAE, i.c.v. lentivirus at day 35, qPCR) is “astrocyte-specific knock-down”. Where the note is “chronic NOD EAE, 10 days after i.c.v. shRNA lentivirus”, the “csf2 expression in astrocytes” value was “significant decrease”.
